For one series, the system named is FDIGROV cell line. The arrangement: method as in PMID 12932133. The conditions noted are these: ovarian carcinoma; cited from earlier work.
Another series has as its system HL-60 cells. In words: MTT in vitro cytotoxicity assay, HL-60. It is filed as cell-based. The following applies: concentration required to inhibit metabolic activity by 50%, mean ± SEM. On the procedure:
(§1) The promyelocytic leukemia HL-60 and breast cancer adenocarcinoma MCF-7 cell lines were purchased from the European Collection of Cell Cultures (ECACC). […] MCF-7 cells were maintained in Minimum Essential Medium Eagle (Sigma Aldrich, St. Louis, MO, USA) supplemented with 2 mM glutamine and MEM nonessential amino-acid solution (Sigma Aldrich, St. Louis, MO, USA). Both media were supplemented with 10% heat-inactivated fetal bovine serum (Biological Industries, Beit-Haemek, Israel) and antibiotics (100 U/mL penicillin and 100 μg/mL streptomycin) (Sigma-Aldrich, St. Louis, MO, USA). Human umbilical vein endothelial cells (HUVECs) and human mammary gland/breast cell line MCF-10A were purchased from the American Type Culture Collection (ATCC). HUVECs were cultured using the EGM-2 Endothelial Medium BulletKit, whereas MCF-10A was cultured using the MEGM Mammary Epithelial BulletKit, both purchased from Lonza (Lonza, Walkersville, MD, USA).
(§2) The MTT (3-(4, 5-dimethylthiazol-2-yl)-2, 5-diphenyltetrazolium bromide) assay was performed according to the known procedure. Cells were seeded into 24-well plates at a density of 8 × 10^4/mL and left to grow for 24 h. After being cultured for 48 h with various concentrations of the tested compounds, cells were incubated with MTT solution (5 mg/mL in phosphate-buffered saline) for 2 h. Then, the plates were centrifuged and the supernatant was discarded. Dimethyl sulfoxide (DMSO; 1 mL) was added to each well to dissolve the blue formazan product, whose absorbance was measured at 560 nm using a FlexStation 3 Multi-Mode Microplate Reader (Molecular Devices, LLC, CA, USA). The untreated cells were used as control. The data were expressed as mean ± SEM of three independent experiments.

The next series has as its system MCF-7 cells. Kind of series: MTT in vitro cytotoxicity assay, MCF-7. In kind it is cell-based. The following applies: concentration required to inhibit metabolic activity by 50%, mean ± SEM. On the procedure: as §1, §2
The subject of a further series is HUVECs. Kind of series: MTT in vitro cytotoxicity assay, HUVEC (normal cells). In kind it is cell-based, human. The conditions noted are these: 48 h, mean ± SEM. As to the method: as §1, §2
Another series deals with MCF-10A cells. Kind of series: MTT in vitro cytotoxicity assay, MCF-10A (normal cells). In kind it is cell-based, human. The conditions noted are these: 48 h, mean ± SEM. On the procedure: as §1, §2
The test system of the next series is UMUC3 cell line. The arrangement: method as in PMID 12932133. The conditions noted are these: bladder carcinoma; cited from earlier work.
Another series deals with PACA2 cell line. The arrangement: method as in PMID 12932133. The conditions noted are these: pancreatic adenocarcinoma; cited from earlier work.
The next series concerns MDA231 cell line. The arrangement: method as in PMID 12932133. The following applies: breast carcinoma; cited from earlier work.

The source of these data is paper PMC7560456, “Synthesis, Selected Transformations, and Biological Activity of Alkoxy Analogues of Lepidilines A and C” (Materials, 2020).

“Also recorded” adds a separate entry of the source. Structures can show the parent of a compound that is named as a salt.

`Cc1ccccc1COn1c[n+]([O-])c(C)c1C` [3d, 1-(2-Methylbenzyloxy)-4,5-dimethyl-1H-imidazole 3-oxide] returned a melting point of 89 to 91 °C.
Same read-out and setting: in the case of `Cc1c(C)n(OCc2ccccc2)c(=S)n1OCc1ccccc1` [7c, 1,3-Dibenzyloxy-4,5-dimethylimidazole-2-thione] it was 87 to 88 °C.
For `Cc1c(C)[n+](Cc2ccccc2)cn1Cc1ccccc1` [lepidiline A], in the series with FDIGROV cell line, the “activity against FDIGROV cell line” value was “some activity”.
Consider “1-Adamantyloxy-3-(4-methylbenzyloxy)-4,5-dimethylimidazolium bromide [5j]”, for which the IC50 with HL-60 cells (48 h) turned out to be 0.39 ± 0.01 µM; in the series on MCF-7 cells (48 h), 2.63 ± 0.03 µM; in the series with HUVECs, 1.94 ± 0.01 µM; in the series with MCF-10A cells it was 1.69 ± 0.04 µM.
The molecule `Cc1cc(C)cc(COn2c[n+]([O-])c(C)c2C)c1` [3f, 1-(3,5-Dimethylbenzyloxy)-4,5-dimethyl-1H-imidazole 3-oxide] gave a melting point of 96 to 98 °C.
For the molecule “1-Adamantyloxy-3-(3,5-dimethylbenzyloxy)-4,5-dimethylimidazolium bromide [5k]”, the half-inhibitory concentration (IC50) stood at 0.36 ± 0.01 µM with HL-60 cells (48 h), 2.4 ± 0.06 µM with MCF-7 cells (48 h), 1.82 ± 0.08 µM in the series with HUVECs and 1.36 ± 0.01 µM with MCF-10A cells.
For the molecule `Cc1c(C)n(OCc2ccccc2)c(=S)n1Cc1ccccc1` [7a, 1-Benzyl-3-benzyloxy-4,5-dimethylimidazole-2-thione], the melting point is 116 to 117 °C.
Still for that read-out and setting: in the case of `c1ccc(CO[n+]2cn(Cc3ccccc3)c(-c3ccccc3)c2-c2ccccc2)cc1` (as salt: phosphate) [6a, 1-Benzyl-3-benzyloxy-4,5-diphenylimidazolium hexafluorophosphate] it was 163 to 166 °C; in that of `Cc1c(C)[n+](OCc2ccccc2)cn1OCc1ccccc1.[Br-]` [5a, 1,3-Dibenzyloxy-4,5-dimethylimidazolium bromide], 110 to 111 °C.
`Cc1cc(C)cc(COn2c[n+](OCc3cc(C)cc(C)c3)c(C)c2C)c1.[Br-]` [5d, 1,3-Di-(3,5-dimethylbenzyloxy)-4,5-dimethylimidazolium bromide] came in with a melting point of 141 to 143 °C. In the series on HL-60 cells (Homo sapiens, HL-60, 48 h), this molecule gave an IC50 of 1.46 ± 0.02 µM. The molecule further displayed a half-inhibitory concentration (IC50) in the series on MCF-7 cells (Homo sapiens, MCF7, 48 h) of 8.57 ± 0.37 µM.
The matching figures for `Cc1ccc(COn2c[n+](OCc3ccc(C)cc3)c(C)c2C)cc1.[Br-]` [5c, 1,3-Di-(4-methylbenzyloxy)-4,5-dimethylimidazolium bromide]: 111 to 113 °C, 4.88 ± 0.18 µM and 24.2 ± 0.46 µM.
On to `c1ccc(CO[n+]2cn(Cc3ccccc3)c(-c3ccccc3)c2-c2ccccc2)cc1` [6a, 1-Benzyl-3-benzyloxy-4,5-diphenylimidazolium hexafluorophosphate], for which the IC50 in the series on HL-60 cells (Homo sapiens, HL-60, 48 h) came to 0.64 ± 0.02 µM; with MCF-7 cells (Homo sapiens, MCF7, 48 h), 1.29 ± 0.01 µM.
The molecule `Cc1c(C)[n+](OCc2ccccc2)cn1Cc1ccccc1.[Br-]` [4a, 1-Benzyl-3-benzyloxy-4,5-dimethylimidazolium bromide] came in with a melting point of 148 to 150 °C.
`[Br-].c1ccc(CO[n+]2cn(Cc3ccccc3)c(-c3ccccc3)c2-c2ccccc2)cc1` [4b, 1-Benzyl-3-benzyloxy-4,5-diphenylimidazolium bromide] returned a melting point of 167 to 169 °C. This molecule displayed an IC50 in the series on HL-60 cells (48 h) of 0.7 ± 0.03 µM. The molecule further came in with an IC50 in the series on MCF-7 cells (48 h) of 1.53 ± 0.09 µM. The half-inhibitory concentration (IC50) in the series with HUVECs (Homo sapiens, HUVEC) stood at 0.97 ± 0.03 µM. This molecule displayed a half-inhibitory concentration (IC50) in the series with MCF-10A cells (Homo sapiens, MCF-10A) of 0.57 ± 0.01 µM.
For `Cc1cc(C)cc(CO[n+]2cn(OC34CC5CC(CC(C5)C3)C4)c(C)c2C)c1` (as salt: phosphate) (hydrate or solvate) [6b, 1-Adamantyloxy-3-(3,5-dimethylbenzyloxy)-4,5-dimethylimidazolium hexafluorophosphate], the melting point was in the range of 150 to 152 °C.
Still for that read-out and setting: in the case of `Cc1[nH]c(C23CC4CC(CC(C4)C2)C3)[n+](OCc2ccccc2)c1C.[Br-]` [4c, 1-Adamantyl-3-benzyloxy-4,5-dimethylimidazolium bromide] it was 196 to 197 °C; in that of `Cc1ccc(COn2c[n+]([O-])c(C)c2C)cc1` [3e, 1-(4-Methylbenzyloxy)-4,5-dimethyl-1H-imidazole 3-oxide], 101 to 102 °C.
For the molecule “1-Adamantyloxy-3-benzyloxy-4,5-dimethylimidazolium bromide [5h]”, the half-maximal inhibitory concentration (IC50) with HL-60 cells (48 h) is 0.88 ± 0.08 µM; with MCF-7 cells (48 h), 6.76 ± 0.08 µM; in the series with HUVECs, 3.7 ± 0.23 µM; in the series on MCF-10A cells, 6.4 ± 0.03 µM.
For `Cc1ccccc1COn1c[n+](OCc2ccccc2C)c(C)c1C.[Br-]` [5b, 1,3-Di-(2-methylbenzyloxy)-4,5-dimethylimidazolium bromide], the melting point was 132 to 133 °C. This molecule also displayed an IC50 in the series on HL-60 cells (Homo sapiens, HL-60, 48 h) of 1.54 ± 0.01 µM. This molecule also showed an IC50 in the series on MCF-7 cells (Homo sapiens, MCF7, 48 h) of 8.3 ± 0.01 µM.
In the case of `Cc1c(C)[n+](Cc2ccccc2)c(C)n1Cc1ccccc1` [lepidiline B], the “activity against FDIGROV cell line” value in the series on FDIGROV cell line is reported as “some activity; also recorded: highly cytotoxic”. Besides, in the series on UMUC3 cell line, the “activity against UMUC3 cell line” value was “promising activity; also recorded: highly cytotoxic”. In addition, the “activity against PACA2 cell line” value with PACA2 cell line was “promising activity; also recorded: highly cytotoxic”. The “activity against MDA231 cell line” value with MDA231 cell line is recorded as “promising activity; also recorded: highly cytotoxic”.
`Cc1c(C)[n+]([O-])cn1OCc1ccccc1` [3c, 1-Benzyloxy-4,5-dimethyl-1H-imidazole 3-oxide] showed a melting point of 103 to 105 °C.
Consider `Cc1ccccc1CO[n+]1cn(OCc2ccccc2)c(C)c1C` [5e, 1-Benzyloxy-3-(2-methylbenzyloxy)-4,5-dimethylimidazolium bromide], for which the half-maximal inhibitory concentration (IC50) came out at 3.16 ± 0.18 µM with HL-60 cells (Homo sapiens, HL-60, 48 h) and 11.6 ± 0.25 µM in the series with MCF-7 cells (Homo sapiens, MCF7, 48 h).
The corresponding values for `Cc1cc(C)cc(CO[n+]2cn(OC34CC5CC(CC(C5)C3)C4)c(C)c2C)c1` [6b, 1-Adamantyloxy-3-(3,5-dimethylbenzyloxy)-4,5-dimethylimidazolium hexafluorophosphate] are 0.37 ± 0.01 µM and 2.52 ± 0.03 µM.
With `[Br-].c1ccc(CO[n+]2c(C34CC5CC(CC(C5)C3)C4)[nH]c(-c3ccccc3)c2-c2ccccc2)cc1` [4d, 1-Adamantyl-3-benzyloxy-4,5-diphenylimidazolium bromide], the melting point was 180 to 182 °C.
Consider `Cc1ccc(CO[n+]2cn(OCc3ccccc3)c(C)c2C)cc1.[Br-]` [5f, 1-Benzyloxy-3-(4-methylbenzyloxy)-4,5-dimethylimidazolium bromide], for which the melting point was 124 to 126 °C. The molecule further gave an IC50 in the series on HL-60 cells (Homo sapiens, HL-60, 48 h) of 2.91 ± 0.08 µM. Further, the midpoint of inhibition in the series on MCF-7 cells (Homo sapiens, MCF7, 48 h), the IC50, lay at 16.6 ± 1.06 µM.
Take “1-Adamantyloxy-3-(2-methylbenzyloxy)-4,5-dimethylimidazolium bromide [5i]”: the IC50 with HL-60 cells (48 h) amounted to 0.67 ± 0.01 µM; in the series with MCF-7 cells (48 h), 5.95 ± 0.35 µM; in the series with HUVECs, 3.96 ± 0.08 µM.
